According to US10028938B2, “Antiviral agents and uses thereof” (Griffith University, priority 2014, dated 2018):
Read-outs that look alike come from different tables or passages of the source.

Tests used:
hPIV-3 HN [1] = molecular target: hPIV-3 HN (Human parainfluenza 3 virus, UniProt P08492); assay type: biochemical, hPIV-3 (strain C-243)
hPIV-1 NI = hPIV-1 NI (Human parainfluenza 1 virus, UniProt P16071); test: biochemical
Procedure: IC50 values for a number of compounds of the first aspect were determined by standard assay methods previously described in Guillon, P et al, Nature Communications (2014).

hPIV-3 HN [2] = molecular target: T1, hPIV-3 HN (UniProt P08492); assay type: biochemical, hPIV-3 (strain C-243); parameters: rows headed: HI Mean IC50; hPIV-3 HN; 3 independent experiments; fold improvement in HI assay; other: versus 6; hPIV-3 HN HI IC50; other: text; other: text, unit given as M; settings: read-out: hPIV-3 HN HI IC50
T1 sequence (P08492 1-572): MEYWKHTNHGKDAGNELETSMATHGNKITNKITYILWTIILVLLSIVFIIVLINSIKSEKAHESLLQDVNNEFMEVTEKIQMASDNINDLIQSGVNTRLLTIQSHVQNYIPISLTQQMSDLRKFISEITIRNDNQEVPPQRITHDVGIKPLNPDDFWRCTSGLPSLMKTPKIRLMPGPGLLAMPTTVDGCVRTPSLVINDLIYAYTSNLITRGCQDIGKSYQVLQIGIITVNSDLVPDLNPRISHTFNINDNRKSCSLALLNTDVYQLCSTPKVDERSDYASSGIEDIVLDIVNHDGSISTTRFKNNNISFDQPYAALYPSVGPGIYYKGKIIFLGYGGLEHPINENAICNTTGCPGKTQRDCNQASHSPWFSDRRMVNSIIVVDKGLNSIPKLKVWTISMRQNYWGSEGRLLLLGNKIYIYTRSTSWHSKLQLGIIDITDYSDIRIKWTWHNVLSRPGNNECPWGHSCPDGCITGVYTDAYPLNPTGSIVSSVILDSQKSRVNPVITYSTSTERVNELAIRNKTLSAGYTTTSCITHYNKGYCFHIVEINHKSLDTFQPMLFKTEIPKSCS

[3] = Table 5, read-out: hPIV-3 NI (IC50 values)

Chain of hPIV-1 NI (P16071 whole entry): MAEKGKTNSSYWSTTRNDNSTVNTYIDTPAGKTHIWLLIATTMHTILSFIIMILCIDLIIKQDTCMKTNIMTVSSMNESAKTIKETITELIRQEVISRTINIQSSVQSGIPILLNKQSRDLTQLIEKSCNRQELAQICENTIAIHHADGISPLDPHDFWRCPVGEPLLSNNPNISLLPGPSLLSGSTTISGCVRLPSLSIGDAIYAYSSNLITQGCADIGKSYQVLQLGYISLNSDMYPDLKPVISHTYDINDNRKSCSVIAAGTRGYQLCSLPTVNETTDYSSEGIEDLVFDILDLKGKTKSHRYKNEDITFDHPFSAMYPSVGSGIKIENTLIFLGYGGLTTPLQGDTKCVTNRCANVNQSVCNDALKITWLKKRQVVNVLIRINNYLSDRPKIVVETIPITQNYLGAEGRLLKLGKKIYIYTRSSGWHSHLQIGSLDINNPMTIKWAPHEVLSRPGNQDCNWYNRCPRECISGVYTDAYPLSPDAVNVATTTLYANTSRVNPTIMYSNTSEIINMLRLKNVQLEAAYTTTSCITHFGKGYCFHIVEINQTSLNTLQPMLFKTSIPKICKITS

Compound	IC50 (hPIV-3 HN [1]; [3])	IC50 (hPIV-1 NI)	IC50 (hPIV-3 HN [2])	IC50 (hPIV-3 HN [1]; text b135, read-out: IC50 values for hPIV-3 HN)
CC(=O)N[C@H]1[C@H]([C@H](O)C(O)CO)OC(C(=O)O)=C[C@@H]1n1cc(-c2ccccc2Cl)nn1 (stereo partly drawn) [IE1172-78, Sodium 5-acetamido-2,6-anhydro-4-(4-(2-chlorophenyl)-[1,2,3,]triazol-1-yl)-3,4,5-trideoxy-D-glycero-D-galacto-non-2-enonate]	2.47 µM	75.2 µM	–	–
COc1ccccc1-c1cn([C@H]2C=C(C(=O)O)O[C@@H]([C@H](O)[C@H](O)CO)[C@@H]2NC(C)=O)nn1 [IE832-37, Sodium 5-acetamido-2,6-anhydro-3,4,5-trideoxy-4-(4-(2-methoxyphenyl)-[1,2,3,]triazol-1-yl)-D-glycero-D-galacto-non-2-enonate]	2.4 µM	201 µM	–	–
CC(=O)N[C@H]1[C@H]([C@H](O)[C@H](O)CO)OC(C(=O)O)=C[C@@H]1n1cnnn1 [IE832-98, Sodium 5-acetamido-2,6-anhydro-3,4,5-trideoxy-4-(1H-tetrazol-1-yl)-D-glycero-D-galacto-non-2-enonate]	27.4 µM	7.44 µM	–	–
CC(=O)N[C@H]1[C@H]([C@H](O)[C@H](O)CO)OC(C(=O)O)=C[C@@H]1n1cc(CC(C)C)nn1 [IE832-8, Sodium 5-acetamido-2,6-anhydro-3,4,5-trideoxy-4-(4-isobutyl-[1,2,3,]triazol-1-yl)-D-glycero-D-galacto-non-2-enonate]	54.4 µM	301 µM	–	–
CC(=O)N[C@H]1[C@H]([C@H](O)[C@H](O)CO)OC(C(=O)O)=C[C@@H]1n1cc(-c2ccc(CO)cc2)nn1 [IE832-12, Sodium 5-acetamido-2,6-anhydro-3,4,5-trideoxy-4-(4-(4-hydroxymethylphenyl)-[1,2,3,]triazol-1-yl)-D-glycero-D-galacto-non-2-enonate]	51.9 µM	215 µM	–	–
COCc1cn(C2C(F)[C@](F)(C(=O)O)OC([C@H](O)[C@H](O)CO)[C@@H]2NC(=O)C(C)C)nn1 (stereo partly drawn) [IE1257-24, 3,4,5-Trideoxy-3-fluoro-5-isobutyramido-4-(4-methoxymethyl-[1,2,3,]triazol-1-yl)-D-erythro-β-L-gluco-non-2-ulopyranosonic fluoride]	8.49 µM	0.36 µM	–	–
CC(=O)N[C@H]1[C@H]([C@H](O)C(O)CO)OC(C(=O)O)=C[C@@H]1n1cc(-c2ccccc2Br)nn1 (stereo partly drawn) [IE1257-84, Sodium 5-acetamido-2,6-anhydro-4-(4-(2-bromophenyl)-[1,2,3,]triazol-1-yl)-3,4,5-trideoxy-D-glycero-D-galacto-non-2-enonate]	2.19 µM	24.9 µM	–	–
CC(=O)NC1C(O)C=C(C(=O)O)OC1C(O)C(O)CO (stereo not shown) [Compound 2, Neu5Ac2en, reference compound]	–	–	1440 µM	–
CC(C)C(=O)N[C@H]1[C@H]([C@H](O)[C@H](O)CO)OC(C(=O)O)=C[C@@H]1n1cc2ccccc2c1C#N [IE889-99, Sodium 2,6-anhydro-4-(1-cyano-2H-isoindol-2-yl)-3,4,5-trideoxy-5-isobutyramido-D-glycero-D-galacto-non-2-enonate]	0.599 µM	6.22 µM	–	–
CC(C)C(=O)N[C@H]1[C@H]([C@H](O)[C@H](O)CO)OC(C(=O)O)=C[C@@H]1n1cnnn1 [IE889-42, Sodium 2,6-anhydro-3,4,5-trideoxy-5-isobutyramido-4-(H-tetrazol-1-yl)-D-glycero-D-galacto-non-2-enonate]	5.11 µM	0.159 µM	–	–
CCCc1cn([C@H]2C=C(C(=O)O)O[C@@H]([C@H](O)[C@H](O)CO)[C@@H]2NC(C)=O)nn1 [IE832-26, Sodium 5-acetamido-2,6-anhydro-3,4,5-trideoxy-4-(4-propyl-[1,2,3,]triazol-1-yl)-D-glycero-D-galacto-non-2-enonate]	67.7 µM	95.5 µM	–	–
CC(=O)N[C@H]1[C@H]([C@H](O)C(O)CO)OC(C(=O)O)=C[C@@H]1n1cc(-c2ccccc2C(F)(F)F)nn1 (stereo partly drawn) [IE1172-83, Sodium 5-acetamido-2,6-anhydro-3,4,5-trideoxy-4-(4-(2-(trifluoromethyl)phenyl)-[1,2,3,]triazol-1-yl)-D-glycero-D-galacto-non-2-enonate]	5.61 µM	73.6 µM	–	–
N#Cc1c2ccccc2cn1[C@H]1C=C(C(=O)O)O[C@@H]([C@H](O)[C@H](O)CO)[C@@H]1NC(=O)C(F)(F)F [IE927-99, Sodium 2,6-anhydro-4-(1-cyano-2H-isoindol-2-yl)-3,4,5-trideoxy-5-(2,2,2-trifluoroacetamido)-D-glycero-D-galacto-non-2-enonate]	0.268 µM	3.09 µM	–	0.27 µM
CC(C)Cc1cn([C@H]2C=C(C(=O)O)O[C@@H]([C@H](O)[C@H](O)CO)[C@@H]2NC(=O)C(C)C)nn1 [IE927-67, Sodium 2,6-anhydro-3,4,5-trideoxy-4-(4-isobutyl-[1,2,3,]triazol-1-yl)-5-isobutyramido-D-glycero-D-galacto-non-2-enonate]	114 µM	47.7 µM	–	–
COCc1cnnn1[C@H]1C=C(C(=O)O)O[C@@H]([C@H](O)C(O)CO)[C@@H]1NC(C)=O (stereo partly drawn) [IE1172-87, Sodium 5-acetamido-2,6-anhydro-3,4,5-trideoxy-4-(5-methoxymethyl-[1,2,3,]triazol-1-yl)-D-glycero-D-galacto-non-2-enonate]	77.4 µM	92.8 µM	–	–
CC(=O)N[C@H]1[C@H]([C@H](O)C(O)CO)OC(C(=O)O)=C[C@@H]1n1nncc1-c1ccccc1 (stereo partly drawn) [IE1172-45, Sodium 5-acetamido-2,6-anhydro-3,4,5-trideoxy-4-(5-phenyl-[1,2,3,]triazol-1-yl)-D-glycero-D-galacto-non-2-enonate]	315 µM	> 1000 µM	–	–
CC(=O)N[C@H]1[C@H]([C@H](O)[C@H](O)CO)OC(C(=O)O)=C[C@@H]1n1cc(-c2cccnc2)nn1 [IE832-27, Sodium 5-acetamido-2,6-anhydro-3,4,5-trideoxy-4-(4-(pyridin-3-yl)-[1,2,3,]triazol-1-yl)-D-glycero-D-galacto-non-2-enonate]	106 µM	302 µM	–	–
CC(=O)N[C@H]1[C@H]([C@H](O)[C@H](O)CO)OC(C(=O)O)=C[C@@H]1n1cc2ccccc2c1C#N [IE889-80, Sodium 5-acetamido-2,6-anhydro-4-(1-cyano-2H-isoindol-2-yl)-3,4,5-trideoxy-D-glycero-D-galacto-non-2-enonate]	2.68 µM	16.9 µM	–	–
CC(=O)N[C@H]1[C@H]([C@H](O)C(O)CO)OC(C(=O)O)=C[C@@H]1n1cc(-c2ccccc2C)nn1 (stereo partly drawn) [IE1172-82, Sodium 5-acetamido-2,6-anhydro-3,4,5-trideoxy-4-(4-(2-methylphenyl)-[1,2,3,]triazol-1-yl)-D-glycero-D-galacto-non-2-enonate]	3.95 µM	57.2 µM	–	–
CC(=O)N[C@H]1[C@H]([C@H](O)C(O)CO)OC(C(=O)O)=C[C@@H]1n1nnc(-c2ccccc2)c1-c1ccccc1 (stereo partly drawn) [IE1172-102, Sodium 5-acetamido-2,6-anhydro-3,4,5-trideoxy-4-(4,5-diphenyl-[1,2,3,]triazol-1-yl)-D-glycero-D-galacto-non-2-enonate]	> 1000 µM	793 µM	–	–
COc1ccc(-c2cn([C@H]3C=C(C(=O)O)O[C@@H]([C@H](O)[C@H](O)CO)[C@@H]3NC(C)=O)nn2)cc1 [IE832-31, Sodium 5-acetamido-2,6-anhydro-3,4,5-trideoxy-4-(4-(4-methoxyphenyl)-[1,2,3,]triazol-1-yl)-D-glycero-D-galacto-non-2-enonate]	22.9 µM	303 µM	–	–
COc1cccc(-c2cn([C@H]3C=C(C(=O)O)O[C@@H]([C@H](O)[C@H](O)CO)[C@@H]3NC(C)=O)nn2)c1 [IE832-20, Sodium 5-acetamido-2,6-anhydro-3,4,5-trideoxy-4-(4-(3-methoxyphenyl)-[1,2,3,]triazol-1-yl)-D-glycero-D-galacto-non-2-enonate]	6.28 µM	193 µM	–	–
COc1ccccc1-c1cn([C@H]2C=C(C(=O)O)O[C@@H]([C@H](O)[C@H](O)CO)[C@@H]2NC(=O)C(C)C)nn1 [IE889-34, Sodium 2,6-anhydro-3,4,5-trideoxy-5-isobutyramido-4-(4-(2-methoxyphenyl)-[1,2,3,]triazol-1-yl)-D-glycero-D-galacto-non-2-enonate]	3.23 µM	30.3 µM	–	–
